Measurements reported in PMC12247020, “A Cyclized Helix‐Loop‐Helix Peptide as a Molecular Scaffold for Cell‐Membrane Permeable Inhibitors for the Interaction Between Estrogen Receptor α and Coactivator SRC1” (Chembiochem, 2025).
Where two headings read alike, the source gives them in different places. Bridge positions count the residues as written; N and C are the ends. Peptide text beside a SMILES is read from it. * marks the point of attachment. X1 = CN(C)c1ccc2c(c1)Oc1cc(N(C)C)ccc1C21OC(=O)c2cc(NC(=O)C*)ccc21

Key:
[1] = test system: MCF‐7 breast cancer cells; experiment: Live cell confocal laser microscopy of TMR‐labeled peptides (cell membrane permeability); details: MCF‐7 cells, 3 μM TMR‐labeled peptide
ERα/LBD (ERα302–552) = biological target: T1, ERα/LBD (ERα302–552) (Homo sapiens, UniProt P03372); experiment: Fluorescence polarization (FP) direct binding of fluorescently labeled peptides to ERα/LBD
T1 construct: Recombinant ERα/LBD (ERα^302–552) was prepared as previously reported; made in house; host or cells: Escherichia coli BL21-CodonPlus-RP
T1 sequence (P03372 302-552): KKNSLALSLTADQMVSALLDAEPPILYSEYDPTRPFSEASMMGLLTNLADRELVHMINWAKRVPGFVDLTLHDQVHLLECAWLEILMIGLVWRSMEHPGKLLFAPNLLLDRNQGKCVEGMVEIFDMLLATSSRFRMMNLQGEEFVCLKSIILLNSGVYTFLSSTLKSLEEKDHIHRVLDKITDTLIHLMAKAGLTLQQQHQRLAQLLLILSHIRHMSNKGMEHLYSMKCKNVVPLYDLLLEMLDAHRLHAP
Experimental: The binding activity of cHLH‐ERα was examined by fluorescence polarization (FP) analysis.^[ [26], [29] ^] The cHLH peptides were labeled with tetramethylrhodamine (TMR) to provide the fluorescent cHLH peptide TMR‐cHLH‐ERα, and fluorescent TMR‐YT1‐RS as a negative control (Figure 1, Figure S2, Supporting Information).
1. Protein Expression and Purification
The plasmid encoding the LBD domain of ERα (ERα302-552), was prepared from the plasmid pF1KB7810 (Kazusa DNA Res. Inst. ) encoding the full length of Estrogen Receptor α as described by using pET -28a(+)vector [1]. […]
4. Fluorescence Polarization […]
Tris-HCl (pH 8.0), 25 mM NaCl, 10%(v/v) Glycerol, 1 mM TCEP as described. The concentration of FL-SRC1Box2 labeled with Fluorescein and TMR-cHLH-ERα and YT1-RS were determined from the absorption of Fluorescein or Tetramethylrhodamine. The respective peptide was incubated with ERα-LBD for 30 min in 20 mM Tris-HCl (pH 8.0), 25 mM NaCl with 1 mM 17β-estradiol, and the mixture was transferred into a 384-well microtiter well (Non-binding, Black, greiner bio -one) and the fluorescence polarization was measured on a spectrofluorometer (SpectraMax iD5, Molecular Devices) at 20 °C. The KD values were analyzed via a quadratic binding equation (Fig S5A, S5B) with the data fit to calculate by using KaleidaGraph 4.0 as described elsewhere. […]

CC(C)C[C@@H]1NC(=O)[C@H](C)NC(=O)[C@H](C)NC(=O)[C@H](CC(C)C)NC(=O)[C@H](CCCCN)NC(=O)[C@H](C)NC(=O)[C@H](CCCCN)NC(=O)[C@H](CC(C)C)NC(=O)[C@H](C)NC(=O)[C@H](C)NC(=O)[C@H](CC(C)C)NC(=O)[C@H](CCCCN)NC(=O)CNC(=O)CNC(=O)CNC(=O)CNC(=O)CNC(=O)CNC(=O)CNC(=O)[C@H](CCC(=O)O)NC(=O)[C@H](CC(C)C)NC(=O)[C@H](CCCNC(=N)N)NC(=O)[C@H](CCCNC(=N)N)NC(=O)[C@H](CC(C)C)NC(=O)[C@H](CCC(=O)O)NC(=O)[C@H](CCCNC(=N)N)NC(=O)[C@H](CCC(=O)O)NC(=O)[C@H](CC(C)C)NC(=O)[C@H](CCCNC(=N)N)NC(=O)[C@H](CCCNC(=N)N)NC(=O)[C@H](CC(C)C)NC(=O)[C@H](CCC(=O)O)NC(=O)[C@H](CCCNC(=N)N)NC(=O)[C@H](CSCC(=O)Nc2ccc3c(c2)C(=O)OC32c3ccc(N(C)C)cc3Oc3cc(N(C)C)ccc32)NC(=O)CNC(=O)CSC[C@@H](C(N)=O)NC(=O)[C@H](Cc2ccc(O)cc2)NC(=O)[C@H](C)NC(=O)[C@H](CCCCN)NC1=O [TMR‐YT1‐RS] ({CH2CO}-GC(X1)RELRRLERELRRLEGGGGGGGKLAALKAKLAALKAYC-NH2; thioether N-39)
cell membrane permeability, confocal laser microscopy, 4 °C ([1]; 4 °C (pre‐chilled medium), fluorescence imaging): showed cell membrane permeability | cell membrane permeability, confocal laser microscopy, 37 °C ([1]; 5‐min incubation, 37 °C, 5% CO2, nuclei stained with Hoechst 33 342, fluorescence imaging): showed cell membrane permeability

CC(C)C[C@@H]1NC(=O)[C@H](C)NC(=O)[C@H](C)NC(=O)[C@H](CC(C)C)NC(=O)[C@H](CCCCN)NC(=O)CNC(=O)CNC(=O)CNC(=O)CNC(=O)CNC(=O)CNC(=O)CNC(=O)[C@H](CCC(=O)O)NC(=O)[C@H](CC(C)C)NC(=O)[C@H](CCCNC(=N)N)NC(=O)[C@H](CCCNC(=N)N)NC(=O)[C@H](CC(C)C)NC(=O)[C@H](CCC(=O)O)NC(=O)[C@H](CCCNC(=N)N)NC(=O)[C@H](CCC(=O)O)NC(=O)[C@H](CC(C)C)NC(=O)[C@H](CCCNC(=N)N)NC(=O)[C@H](CCCNC(=N)N)NC(=O)[C@H](CC(C)C)NC(=O)[C@H](CCC(=O)O)NC(=O)[C@H](CCCNC(=N)N)NC(=O)[C@H](CSCC(=O)Nc2ccc3c(c2)C(=O)OC32c3ccc(N(C)C)cc3Oc3cc(N(C)C)ccc32)NC(=O)CNC(=O)CSC[C@@H](C(N)=O)NC(=O)[C@H](Cc2ccc(O)cc2)NC(=O)[C@H](C)NC(=O)[C@H](CCCCN)NC(=O)[C@H](CC(C)C)NC(=O)[C@H](CC(C)C)NC(=O)[C@H](CC(C)C)NC(=O)[C@H](CC(C)C)NC(=O)[C@H](CCCCN)NC(=O)[C@H](CC(C)C)NC(=O)[C@H](CCCCN)NC1=O [TMR‐cHLH‐ERα] ({CH2CO}-GC(X1)RELRRLERELRRLEGGGGGGGKLAALKLKLLLLKAYC-NH2; thioether N-39)
Kd (ERα/LBD (ERα302–552)): 0.285 µM

CH3CO-C(FL)QLLTERHKILHRLLQEGSPSD-NH2 (Ac-C(fluorescein)QLLTERHKILHRLLQEGSPSD-NH2; not fully specified; printed as CH3CO-C(FL)QLLTERHKILHRLLQEGSPSD-NH2) [FL‐SRC1Box2, fluorescently labeled SRC1 box 2 peptide with the LXXLL motif, FP tracer, reference compound]
Kd (ERα/LBD (ERα302–552); FP, 20 nM labeled peptide, in the presence of 17β‐estradiol, 20 mM Tris-HCl pH 8.0, 25 mM NaCl, 30 min, 20 °C, quadratic binding equation (Fig S5A), read-out: K D value, binding to ERα/LBD): 7.8 µM
